Data on six compounds can be found in patent US20100087477A1, “SELECTIVE GLYCOSIDASE INHIBITORS” (priority 2006, published 2010).

Molecules are shown by their SMILES. Like-named read-outs stand apart in the source and are kept apart here.

One test concerns the target T1, OGA (Homo sapiens, UniProt O60502).
T1 sequence (O60502 1-916): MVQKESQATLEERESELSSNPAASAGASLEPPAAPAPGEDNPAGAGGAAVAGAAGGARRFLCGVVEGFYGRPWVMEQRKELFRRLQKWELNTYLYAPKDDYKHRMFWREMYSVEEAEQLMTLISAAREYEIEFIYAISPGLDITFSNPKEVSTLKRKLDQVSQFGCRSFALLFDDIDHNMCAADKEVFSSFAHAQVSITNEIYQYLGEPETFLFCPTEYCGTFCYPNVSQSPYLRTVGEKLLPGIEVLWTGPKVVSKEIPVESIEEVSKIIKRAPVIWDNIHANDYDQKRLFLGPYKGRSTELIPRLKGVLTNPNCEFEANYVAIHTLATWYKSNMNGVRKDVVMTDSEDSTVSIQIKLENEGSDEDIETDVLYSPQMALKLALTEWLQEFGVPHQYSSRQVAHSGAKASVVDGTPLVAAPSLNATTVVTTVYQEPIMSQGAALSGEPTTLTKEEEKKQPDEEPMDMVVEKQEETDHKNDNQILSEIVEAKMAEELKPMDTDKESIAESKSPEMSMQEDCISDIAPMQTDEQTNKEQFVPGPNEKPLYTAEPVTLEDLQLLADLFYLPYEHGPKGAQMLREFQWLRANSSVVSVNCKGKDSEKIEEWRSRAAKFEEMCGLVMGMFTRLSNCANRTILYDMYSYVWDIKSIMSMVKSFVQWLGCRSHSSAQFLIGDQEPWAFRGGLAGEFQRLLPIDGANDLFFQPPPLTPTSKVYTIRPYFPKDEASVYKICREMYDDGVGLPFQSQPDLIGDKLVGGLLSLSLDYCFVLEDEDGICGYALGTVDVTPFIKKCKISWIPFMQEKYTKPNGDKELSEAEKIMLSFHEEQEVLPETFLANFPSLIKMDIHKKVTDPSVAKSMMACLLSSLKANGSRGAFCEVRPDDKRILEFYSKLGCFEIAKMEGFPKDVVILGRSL
The conditions noted are these: background, literature; cited from earlier work.

Test [1] addresses mixture of the human placental hexosaminidases HexA/HexB. The test is described as follows: Steady state kinetics of hexosaminidases A and B with 4MU-GlcNAc. Type of test: biochemical.
For test [2], the target named is bacterial O-GlcNAcase (bOGA) (NagJ from Clostridium perfringens) (Clostridium perfringens, UniProt Q8XL08). Nature of the test: biochemical. Also on record: Ratio a/b: reference not given here.
Sequence of bacterial O-GlcNAcase (bOGA) (NagJ from Clostridium perfringens) (Q8XL08 31-1001 limits assumed): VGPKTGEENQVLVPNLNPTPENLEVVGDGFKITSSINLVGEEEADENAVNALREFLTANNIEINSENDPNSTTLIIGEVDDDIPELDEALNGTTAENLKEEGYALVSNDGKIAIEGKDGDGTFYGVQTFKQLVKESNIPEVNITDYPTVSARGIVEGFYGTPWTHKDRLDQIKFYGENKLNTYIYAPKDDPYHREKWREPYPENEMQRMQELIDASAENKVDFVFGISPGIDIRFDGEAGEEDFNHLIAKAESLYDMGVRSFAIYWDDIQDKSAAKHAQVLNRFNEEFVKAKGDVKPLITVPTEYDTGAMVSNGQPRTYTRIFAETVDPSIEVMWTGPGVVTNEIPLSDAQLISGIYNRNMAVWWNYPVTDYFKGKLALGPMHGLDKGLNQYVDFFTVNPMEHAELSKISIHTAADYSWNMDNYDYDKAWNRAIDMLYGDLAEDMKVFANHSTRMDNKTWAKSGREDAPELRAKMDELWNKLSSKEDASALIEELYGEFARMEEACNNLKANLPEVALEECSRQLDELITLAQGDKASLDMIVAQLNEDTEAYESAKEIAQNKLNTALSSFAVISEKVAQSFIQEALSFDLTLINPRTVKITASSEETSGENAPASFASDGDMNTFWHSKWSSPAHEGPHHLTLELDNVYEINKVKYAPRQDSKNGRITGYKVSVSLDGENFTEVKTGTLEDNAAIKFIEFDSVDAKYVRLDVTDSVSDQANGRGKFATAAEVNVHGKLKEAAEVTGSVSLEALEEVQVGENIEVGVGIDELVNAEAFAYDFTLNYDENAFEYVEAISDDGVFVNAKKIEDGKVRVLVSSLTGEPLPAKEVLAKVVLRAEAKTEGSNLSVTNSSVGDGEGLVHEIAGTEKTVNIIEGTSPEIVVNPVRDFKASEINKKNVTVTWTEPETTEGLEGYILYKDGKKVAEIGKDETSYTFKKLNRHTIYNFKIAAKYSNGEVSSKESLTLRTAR
The subject of a further test is HEK 293 cells. The test is described as follows: Immunoblot: O-GlcNAc levels in treated HEK 293 cells. The format is cell-based, human. The conditions noted are these: FIG. 4B. A general note: A western blot detects proteins with antibodies after separation by electrophoresis.
For a further test, the target named is T2, human OGA (hOGA) (Homo sapiens, UniProt O60502).
T2 sequence (O60502 1-916): T1 sequence (O60502 1-916)
The test is described as follows: Inhibition of human OGA (hOGA), methodology similar to bOGA. The format is biochemical.

The next test addresses bOGA (Clostridium perfringens, UniProt Q8XL08). The format is biochemical.
Test [3] has as its system human lysosomal hexosaminidases HexA and HexB. The conditions noted are these: background, literature; cited from earlier work.
The mark [4] stands for this setting: read-out: Ki values (in M) a) hexosaminidases.

Sequence of bOGA (Q8XL08 31-1001 limits assumed): as above

Consider `CC(=O)NC1c2nc(C(=O)Nc3ccccc3)cn2C(CO)[C@@H](O)C1O` (stereo partly drawn) [A], for which, at OGA, the “inhibition of OGA (in words)” value is reported as “only acts at the micromolar level”.
In the case of `CC(=O)NC1c2nc(CCc3ccccc3)cn2C(CO)[C@@H](O)[C@@H]1O` (stereo partly drawn) [Compound III], the Ki (commonly the equilibrium dissociation constant of an inhibitor or competing ligand from its target) in test [1] (setting [4]) worked out at 2 nM. For the same compound, in test [2], the inhibitory constant (Ki) turned out to be 0.0078 nM and the Ratio a/b is on record as 256.
Consider `CC(C)C(=O)NC1c2nc(CCc3ccccc3)cn2C(CO)[C@@H](O)C1O` (stereo partly drawn) [Compound II], for which the Ki in test [1] (HexA/HexB mixture, read-out: Ki values (in M) a) hexosaminidases) was 500 nM; in test [1] (placental hexosaminidases, 0-400 nM inhibitor, FIG. 3, read-out: Ki), 520 ± 70 nM; in test [2] it was 0.0046 ± 0.0002 nM. The “raising O-GlcNAc levels” value in the test with HEK 293 cells is listed as “more efficient at raising O-GlcNAc levels than PUGNAc”. In addition, in test [2], the Ratio a/b is on record as 108000. For the same compound, the entries for the “inhibition of hOGA (in words)” value on human OGA (hOGA) and against human OGA (hOGA) (listed as GlcNacstain) were “active against human OGA” and “more potent inhibitor than PUGNac”, respectively. For the same compound, the IC50 – broadly, the midpoint of a concentration-inhibition curve – at human OGA (hOGA) (hOGA, FIG. 5) worked out at 8 nM. On bOGA, the “activity in inhibiting bOGA from removing O-GlcNAc from proteins” value is listed as “more active than PUGNAc”.
Take `CCC(=O)NC1c2nc(CCc3ccccc3)cn2C(CO)[C@@H](O)[C@@H]1O` (stereo partly drawn) [Compound IV]: in test [1] (setting [4]), the Ki worked out at 4.8 nM. Moreover, in test [2], the Ki came out at 0.011 nM and the Ratio a/b was 440.
For `CC(=O)N[C@H]1/C(=N/OC(=O)Nc2ccccc2)O[C@H](CO)[C@@H](O)[C@@H]1O` [PUGNAc, O-(2-acetamido-2-deoxy-D-glucopyrano-sylidene)amino-N-phenylcarbamate], the “inhibition of OGA (in words)” value at OGA is listed as “nanomolar inhibitor”. Besides, the “inhibition of HexA and HexB (in words)” value in test [3] is reported as “potent inhibitor”.
`COC(=O)Cc1cn2c(n1)C(NC(C)=O)[C@@H](O)[C@H](O)C2CO` (stereo partly drawn) [V, reference compound]: the Ki in test [1] (setting [4]) was found to be 7.5 nM; in test [2] it was 0.003 nM. Besides, the Ratio a/b in test [2] was 2500.
